This is an account of results in PMC10787677, “Characterization of a novel aspartic protease from Trichoderma asperellum for the preparation of duck blood peptides” (Applied Microbiology and Biotechnology, 2024).

Non-standard residues stand in square brackets, D forms with d. Residues, ends and D or L forms follow the SMILES beside them. *: point of attachment. Sta = CC(C)C[C@H](N)[C@@H](O)CC(=O)O; Isovaleryl = CC(C)CC(=O)*

For the assay, the target named is T1, TaproA1 (Trichoderma asperellum, UniProt A0A6V8QUH5).
T1 construct: mature enzyme about 36 kDa; precursor 521 residues; purified on Q-Sepharose Fast Flow
In words: residual casein hydrolysis after […] min preincubation, Folin phenol read-out. In kind it is biochemical. The following applies: read-out: Relative activity ^b (%).

T1 sequence (A0A6V8QUH5 189-517 limits assumed): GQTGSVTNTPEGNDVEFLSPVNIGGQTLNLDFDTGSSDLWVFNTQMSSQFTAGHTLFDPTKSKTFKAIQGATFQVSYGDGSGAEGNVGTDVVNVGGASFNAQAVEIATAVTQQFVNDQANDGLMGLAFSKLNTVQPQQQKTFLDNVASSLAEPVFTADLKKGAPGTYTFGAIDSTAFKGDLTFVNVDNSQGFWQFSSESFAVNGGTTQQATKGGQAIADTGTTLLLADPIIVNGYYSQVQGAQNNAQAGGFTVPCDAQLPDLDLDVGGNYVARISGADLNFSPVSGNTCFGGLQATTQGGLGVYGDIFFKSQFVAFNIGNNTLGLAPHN

As for `CC(C)CC(=O)N[C@H](C(=O)N[C@H](C(=O)N[C@@H](CC(C)C)[C@@H](O)CC(=O)N[C@@H](C)C(=O)N[C@@H](CC(C)C)[C@@H](O)CC(=O)O)C(C)C)C(C)C` [Pepstatin A] (Isovaleryl-VV[Sta]A[Sta]-OH), the activity at 10 µM came out at 0.7 ± 0.1%.
